In brackets after ≈: the same amount, converted by molar mass. Each block holds one compound with its values, some of them ahead of it.
Columns and labels:
[1] = biological target: Intercellular adhesion molecule 1 (Homo sapiens, UniProt P05362); assay: Inhibition of ICAM1 (unknown origin)
MDA-MB-231 = assay: Cytotoxicity against human MDA-MB-231 cells; format: functional, cell-based
SNB-19 = assay: Cytotoxicity against human SNB19 cells; format: functional, cell-based
C32 = assay: Cytotoxicity against human C32 cells; format: functional, cell-based
Bacillus subtilis = assay: Antibacterial activity against Bacillus subtilis; format: functional
Escherichia coli = assay: Antibacterial activity against Escherichia coli; format: functional
Staphylococcus aureus = assay: Antibacterial activity against Staphylococcus aureus; format: functional
MCF7 = assay: Cytotoxicity against human MCF7 cells; format: functional, cell-based
Liver = assay: Antioxidant activity in rat liver microsomal membranes assessed as inhibition of Fe(2+)/ascorbate-induced lipid peroxidation; format: functional, microsomes, microsome
T47D = assay: Cytotoxicity against human T47D cells; format: functional, cell-based
PBMC = assay: Cytotoxicity in human PBMCs assessed as reduction in cel viability at 50 ug/ml; format: cell-based

Intercellular adhesion molecule 1, sequence (P05362 whole entry): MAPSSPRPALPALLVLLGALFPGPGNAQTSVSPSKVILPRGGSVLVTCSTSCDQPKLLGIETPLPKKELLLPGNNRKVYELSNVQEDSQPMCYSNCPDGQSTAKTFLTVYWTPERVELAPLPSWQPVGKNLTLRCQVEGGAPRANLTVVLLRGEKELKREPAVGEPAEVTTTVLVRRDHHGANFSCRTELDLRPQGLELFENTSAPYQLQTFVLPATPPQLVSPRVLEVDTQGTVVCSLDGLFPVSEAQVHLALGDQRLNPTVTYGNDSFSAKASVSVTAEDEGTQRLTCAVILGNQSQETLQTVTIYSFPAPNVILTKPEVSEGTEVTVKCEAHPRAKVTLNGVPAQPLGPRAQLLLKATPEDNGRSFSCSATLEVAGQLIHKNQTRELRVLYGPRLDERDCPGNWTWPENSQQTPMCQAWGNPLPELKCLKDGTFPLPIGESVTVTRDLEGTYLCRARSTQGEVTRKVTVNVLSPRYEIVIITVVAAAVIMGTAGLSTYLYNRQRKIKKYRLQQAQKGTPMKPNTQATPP

IC50 [1]: 0.27 to 1.4 µM
SMILES: CC(=O)N1CCN(Cc2ccc3c(c2)Nc2nccnc2S3)CC1

IC50 [1]: 0.27 to 1.4 µM
SMILES: c1cnc2c(n1)Nc1cc(CN3CCC3)ccc1S2

SMILES: C[n+]1cc2c(c3ccccc31)Nc1ccc(N3CCCCC3)cc1S2.[Cl-]
IC50 (MDA-MB-231): 0.5 to 12 µg/mL
IC50 (SNB-19): 0.7 to 11.5 µg/mL
IC50 (C32): 0.5 to 7.5 µg/mL

SMILES: O=[N+]([O-])c1cnc2c(c1)Sc1cc(Br)ccc1N2
inhibition zone (IZ) (Bacillus subtilis): 8 - 12 mm
inhibition zone (IZ) (Escherichia coli): 7 - 12 mm
inhibition zone (IZ) (Staphylococcus aureus): 15 mm

IC50 [1]: 0.27 to 1.4 µM
SMILES: NS(=O)(=O)NC1CCN(Cc2ccc3c(c2)Nc2nccnc2S3)CC1

IC50 [1]: 0.53 µM
SMILES: O=C(O)CC1CCN(Cc2ccc3c(c2)Nc2nccnc2S3)CC1

SMILES: CSc1ccc2c(c1)Sc1cnc3ccccc3c1N2Cc1ccccc1
IC50 (MDA-MB-231): 7.59 µg/mL (≈ 19.6 µM)
IC50 (MCF7): 8.71 µg/mL (≈ 22.5 µM)

SMILES: O=[N+]([O-])c1cnc2c(c1)Sc1cc(Cl)ccc1N2
inhibition zone (IZ) (Bacillus subtilis): 8 - 12 mm
inhibition zone (IZ) (Escherichia coli): 12 mm
inhibition zone (IZ) (Staphylococcus aureus): 8 - 15 mm

IC50 (Liver): 2 to 3 µg/mL
SMILES: c1ccc2c(c1)Nc1nc3ccccc3cc1S2

SMILES: O=[N+]([O-])c1cnc2c(c1)Sc1cccc(Br)c1N2
inhibition zone (IZ) (Bacillus subtilis): 8 - 12 mm
inhibition zone (IZ) (Escherichia coli): 7 - 12 mm
inhibition zone (IZ) (Staphylococcus aureus): 8 - 15 mm

SMILES: C[n+]1cc2c(c3ccccc31)Nc1c(O)cc(-c3ccccc3)cc1S2.[Cl-]
IC50 (MDA-MB-231): 0.5 to 12 µg/mL
IC50 (SNB-19): 0.7 to 11.5 µg/mL
IC50 (C32): 0.5 to 7.5 µg/mL

SMILES: CN1c2ccncc2Sc2ncccc21
IC50 (MCF7): 28.4 to 32.9 µg/mL (≈ 132 to 153 µM)

SMILES: C#CCN1c2cccc(C(F)(F)F)c2Sc2cnc3ccccc3c21
IC50 (MDA-MB-231): 7.71 µg/mL (≈ 21.6 µM)

MIC (Staphylococcus aureus): >=200 ug
SMILES: CCn1c(=O)c2c(c3ccccc31)Nc1ccccc1S2

IC50 [1]: 0.27 to 1.4 µM
SMILES: O=S(=O)(NC1CCN(Cc2ccc3c(c2)Nc2nccnc2S3)CC1)c1ccccc1

SMILES: CCN(CC)CC#CCN1c2ccncc2Sc2ccncc21
IC50 (C32): 24.8 to 29.2 µg/mL (≈ 76.4 to 90 µM)

SMILES: C(#CCN1c2ccncc2Sc2ccncc21)CN1CCCCC1
IC50 (C32): 24.8 to 29.2 µg/mL (≈ 73.7 to 86.8 µM)

SMILES: CCN(C)CC#CCN1c2ccncc2Sc2ccncc21
IC50 (C32): 24.8 to 29.2 µg/mL (≈ 79.9 to 94.1 µM)

SMILES: CN(C)CCCN1c2ccncc2Sc2ncccc21
IC50 (C32): 6.3 µg/mL (≈ 22 µM)
IC50 (MCF7): 11.3 µg/mL (≈ 39.5 µM)

SMILES: CN1CCCCC1CCN1c2ccncc2Sc2ncccc21 (configuration not stated)
IC50 (MCF7): 28.4 to 32.9 µg/mL (≈ 87 to 101 µM)

IC50 [1]: 0.27 to 1.4 µM
SMILES: CC(=O)NC1CCN(Cc2ccc3c(c2)Nc2nccnc2S3)CC1

SMILES: O=[N+]([O-])c1cnc2c(c1)Sc1cc(F)ccc1N2
inhibition zone (IZ) (Bacillus subtilis): 12 mm
inhibition zone (IZ) (Escherichia coli): 7 - 12 mm
inhibition zone (IZ) (Staphylococcus aureus): 8 - 15 mm

SMILES: C[n+]1cc2c(c3ccccc31)Nc1cc(OCCN3CCCCC3)ccc1S2.[Cl-]
IC50 (MDA-MB-231): ≤ 3 µg/mL
IC50 (SNB-19): ≤ 3 µg/mL
IC50 (C32): ≤ 3 µg/mL
IC50 (T47D): ≤ 3 µg/mL

SMILES: c1cnc(N2c3ccncc3Sc3ncccc32)nc1
IC50 (MCF7): 0.73 µg/mL (≈ 2.61 µM)

IC50 (Liver): 6 µg/mL
SMILES: c1ccc2nc3c(cc2c1)Sc1c(ccc2ccccc12)N3

IC50 [1]: 0.27 to 1.4 µM
SMILES: c1cnc2c(n1)Nc1cc(CN3CCCCCC3)ccc1S2

IC50 (Liver): 1 µM
SMILES: c1ccc2c3c(cnc2c1)Nc1cnc2ccccc2c1S3

IC50 [1]: 0.27 to 1.4 µM
SMILES: CN(C)S(=O)(=O)N1CCN(Cc2ccc3c(c2)Nc2nccnc2S3)CC1

IC50 (Liver): 2 µg/mL
SMILES: c1ccc2nc3c(cc2c1)Sc1ccc2ccccc2c1N3

SMILES: CCCCOc1ccc2c(c1)Nc1c(c[n+](C)c3ccccc13)S2.[Cl-]
IC50 (MDA-MB-231): 0.5 to 12 µg/mL
IC50 (SNB-19): 0.7 to 11.5 µg/mL
IC50 (C32): 0.5 to 7.5 µg/mL

IC50 (Liver): 2 to 3 µg/mL
SMILES: COc1ccc2c(c1)Sc1cc3ccccc3nc1N2

SMILES: CCN(CC)CC#CCN1c2cnccc2Sc2cccnc21
IC50 (SNB-19): 26.1 to 27.5 µg/mL (≈ 80.4 to 84.8 µM)
Activity (PBMC): <= 22%
IC50 (C32): 26.1 to 27.5 µg/mL (≈ 80.4 to 84.8 µM)
IC50 (T47D): 26.1 to 27.5 µg/mL (≈ 80.4 to 84.8 µM)

SMILES: C[n+]1cc2c(c3ccccc31)Nc1cc(OCCN3CCCC3)ccc1S2.[Cl-]
IC50 (MDA-MB-231): ≤ 3 µg/mL
IC50 (SNB-19): ≤ 3 µg/mL
IC50 (C32): ≤ 3 µg/mL
IC50 (T47D): ≤ 3 µg/mL

SMILES: CCN(CC)CCCN1c2ccc3ccccc3c2Sc2cc3ccccc3nc21
IC50 (SNB-19): 0.98 µg/mL (≈ 2.37 µM)
IC50 (C32): 0.8 µg/mL (≈ 1.93 µM)
IC50 (T47D): 5.9 µg/mL (≈ 14.3 µM)

SMILES: CCN(C)CC#CCN1c2cnccc2Sc2cccnc21
IC50 (SNB-19): 26.1 to 27.5 µg/mL (≈ 84.1 to 88.6 µM)
Activity (PBMC): <= 22%
IC50 (C32): 26.1 to 27.5 µg/mL (≈ 84.1 to 88.6 µM)
IC50 (T47D): 26.1 to 27.5 µg/mL (≈ 84.1 to 88.6 µM)

MIC (Escherichia coli; Escherichia coli): 14 µg/mL
SMILES: C[n+]1cc2c(c3ccccc31)Nc1cccc(O)c1S2.[Cl-]

SMILES: C=CCN1c2ccncc2Sc2ncccc21
IC50 (MCF7): 28.4 to 32.9 µg/mL (≈ 118 to 136 µM)

SMILES: C[n+]1cc2c(c3ccccc31)Nc1ccc(N3CCNCC3)cc1S2.[Cl-]
IC50 (MDA-MB-231): 0.5 to 12 µg/mL
IC50 (SNB-19): 0.7 to 11.5 µg/mL
IC50 (C32): 0.5 to 7.5 µg/mL

SMILES: C(#CCN1c2cnccc2Sc2cccnc21)CN1CCN(c2ccccc2)CC1
IC50 (SNB-19): 33.1 µg/mL (≈ 80 µM)
Activity (PBMC): <= 22%
IC50 (C32): 26.1 to 27.5 µg/mL (≈ 63.1 to 66.5 µM)
IC50 (T47D): 45.8 µg/mL (≈ 111 µM)

SMILES: CN(C)CCCOc1ccc2c(c1)Nc1c(c[n+](C)c3ccccc13)S2.[Cl-]
IC50 (MDA-MB-231): ≤ 3 µg/mL
IC50 (SNB-19): ≤ 3 µg/mL
IC50 (C32): ≤ 3 µg/mL
IC50 (T47D): ≤ 3 µg/mL

IC50 [1]: 0.42 to 1 µM
SMILES: O=C(O)c1ccc(C2CCN(Cc3ccc4c(c3)Nc3nccnc3S4)CC2)cc1

SMILES: c1cnc2c(c1)Nc1ccncc1S2
IC50 (SNB-19): 0.46 µg/mL (≈ 2.29 µM)
IC50 (C32): 0.46 µg/mL (≈ 2.29 µM)
IC50 (MCF7): 0.72 µg/mL (≈ 3.58 µM)

SMILES: CN1CCCCC1CCN1c2ccc(F)cc2Sc2cnc3ccccc3c21 (configuration not stated)
IC50 (MDA-MB-231): 5.92 to 6.96 µg/mL (≈ 15 to 17.7 µM)
IC50 (MCF7): 5.92 to 6.96 µg/mL (≈ 15 to 17.7 µM)

IC50 [1]: 0.42 to 1 µM
SMILES: CC(CCC1CCN(Cc2ccc3c(c2)Nc2nccnc2S3)CC1)C(=O)O (configuration not stated)

SMILES: C#CCN1c2ccncc2Sc2ncccc21
IC50 (MCF7): 28.4 to 32.9 µg/mL (≈ 119 to 137 µM)

SMILES: CN1CCN(CC#CCN2c3ccncc3Sc3ccncc32)CC1
IC50 (SNB-19): 21.2 µg/mL (≈ 60.3 µM)
IC50 (C32): 24.8 to 29.2 µg/mL (≈ 70.6 to 83.1 µM)
IC50 (T47D): 9.6 µg/mL (≈ 27.3 µM)

SMILES: CN(C)CCCN1c2ccc(F)cc2Sc2cnc3ccccc3c21
IC50 (MDA-MB-231): 7.43 µg/mL (≈ 21 µM)
IC50 (MCF7): 7.91 µg/mL (≈ 22.4 µM)

IC50 [1]: 0.27 to 1.4 µM
SMILES: c1cnc2c(n1)Nc1cc(CN3CCCCCCC3)ccc1S2

IC50 (Liver): 16 µM
SMILES: c1ccc2nc3c(cc2c1)Sc1c(ccc2ncccc12)N3

IC50 [1]: 0.27 to 1.4 µM
SMILES: O=S(=O)(NC1CCN(Cc2ccc3c(c2)Nc2nccnc2S3)CC1)N1CCCCC1

SMILES: FC(F)(F)c1cccc2c1Sc1cnc3ccccc3c1N2
IC50 (SNB-19): 10 µg/mL (≈ 31.4 µM)
IC50 (MCF7): 9.76 µg/mL (≈ 30.7 µM)

IC50 [1]: 0.42 µM
SMILES: C/C(=C\CC1CCN(Cc2ccc3c(c2)Nc2nccnc2S3)CC1)C(=O)O

SMILES: COc1ccc2c(c1)Nc1c(c[n+](C)c3ccccc13)S2.[Cl-]
IC50 (MDA-MB-231): 0.5 to 12 µg/mL
IC50 (SNB-19): 0.7 to 11.5 µg/mL
IC50 (C32): 0.5 to 7.5 µg/mL

IC50 [1]: 0.27 to 1.4 µM
SMILES: NC(=O)C1CCN(Cc2ccc3c(c2)Nc2nccnc2S3)CC1

IC50 [1]: 0.42 to 1 µM
SMILES: CC(C)(CCC1CCN(Cc2ccc3c(c2)Nc2nccnc2S3)CC1)C(=O)O

IC50 (Liver): 2 to 3 µg/mL
SMILES: Clc1ccc2c(c1)Sc1cc3ccccc3nc1N2

IC50 [1]: 0.27 to 1.4 µM
SMILES: CNS(=O)(=O)NC1CCN(Cc2ccc3c(c2)Nc2nccnc2S3)CC1

SMILES: C[n+]1cc2c(c3ccccc31)Nc1cc(OCCN3CCOCC3)ccc1S2.[Cl-]
IC50 (MDA-MB-231): ≤ 3 µg/mL
IC50 (SNB-19): ≤ 3 µg/mL
IC50 (C32): ≤ 3 µg/mL
IC50 (T47D): ≤ 3 µg/mL

IC50 [1]: 0.42 to 1 µM
SMILES: O=C(O)C1CCN(Cc2ccc3c(c2)Nc2nccnc2S3)CC1

MIC (Staphylococcus aureus): >=200 ug
SMILES: O=c1[nH]c2ccccc2c2c1Sc1ccccc1N2

SMILES: COc1ccc2c(c1)Sc1c[n+](C)c3ccccc3c1N2.[Cl-]
IC50 (MDA-MB-231): 0.5 to 12 µg/mL
IC50 (SNB-19): 0.7 to 11.5 µg/mL
IC50 (C32): 0.5 to 7.5 µg/mL

IC50 [1]: 0.42 to 1 µM
SMILES: O=C(O)CC1CC2CCC(C1)N(Cc1ccc3c(c1)Nc1nccnc1S3)C2 (configuration not stated)

IC50 (Liver): 125 µM
SMILES: c1cc2c(cn1)Sc1ccncc1N2CCN1CCCC1

IC50 [1]: 0.47 µM
SMILES: O=C(O)CCC1CCN(Cc2ccc3c(c2)Nc2nccnc2S3)CC1

IC50 [1]: 0.27 to 1.4 µM
SMILES: NS(=O)(=O)N1CCN(Cc2ccc3c(c2)Nc2nccnc2S3)CC1

IC50 (Liver): 107 µM
SMILES: O=[N+]([O-])c1ccc(N2c3ccncc3Sc3ccncc32)c([N+](=O)[O-])c1

IC50 [1]: 0.27 to 1.4 µM
SMILES: c1cnc2c(n1)Nc1cc(CN3CCCCC3)ccc1S2

IC50 [1]: 0.27 to 1.4 µM
SMILES: O=S(=O)(NC1CCN(Cc2ccc3c(c2)Nc2nccnc2S3)CC1)C(F)(F)F

IC50 [1]: 0.27 to 1.4 µM
SMILES: NC(=O)C1CCCN(Cc2ccc3c(c2)Nc2nccnc2S3)C1 (configuration not stated)

MIC (Staphylococcus aureus): >=200 ug
SMILES: Cn1c(=O)c2c(c3ccccc31)Nc1ccccc1S2

— ChEMBL document CHEMBL4138122, “Azaphenothiazines - promising phenothiazine derivatives. An insight into nomenclature, synthesis, structure elucidation and biological properties” (Eur J Med Chem, 2017)
